≈ marks a conversion by molar mass, not a printed value.

Common to all, as to experiment: ≥ marks a high value that may be exact or a test limit, other limits are often not marked, values filed in µg/mL are converted to µM
For test [1], the system named is Escherichia coli.
Test [2] has as its system Staphylococcus aureus.
Test [3] relates to Staphylococcus aureus ATCC 29213.
The test system of test [4] is Escherichia coli ATCC 25922.
In test [5] the test system is Pseudomonas aeruginosa ATCC 27853.
In test [6] the test system is Staphylococcus epidermidis ATCC 12228.

For `CC[C@H](C)[C@H](NC(=O)[C@H](Cc1c[nH]c2ccccc12)NC(=O)[C@H](CCCCN)NC(=O)[C@@H](NC(=O)[C@H](CC(C)C)NC(=O)[C@H](CCCCN)NC(=O)CNC(=O)[C@@H](NC(=O)[C@@H](NC(=O)[C@H](CO)NC(=O)[C@@H](NC(=O)[C@@H](NC(=O)[C@H](CCCCN)NC(=O)[C@H](CCC(N)=O)NC(=O)[C@H](C)N)[C@@H](C)CC)[C@@H](C)CC)[C@@H](C)O)[C@@H](C)CC)C(C)C)C(=O)N[C@H](C(=O)N[C@@H](CCCCN)C(=O)N[C@H](C(=O)N[C@H](C(=O)N[C@@H](CC(N)=O)C(=O)N[C@@H](CCCCN)C(=O)N[C@@H](Cc1ccccc1)C(=O)N[C@H](C(=O)N[C@@H](CCCCN)C(=O)N[C@@H](CCCCN)C(=O)O)[C@@H](C)O)C(C)C)[C@@H](C)O)[C@@H](C)CC` [AQKIISTIGKLVKWIIKTVNKFTKK], the minimum inhibitory concentration (MIC) in test [1] was found to be 2.5 µM (≈ 7.22 µg/mL); in test [2], 10.3 µM (≈ 29.7 µg/mL).
`CC[C@H](C)[C@H](NC(=O)[C@@H](N)Cc1ccccc1)C(=O)N[C@@H](CC(C)C)C(=O)N[C@@H](CCCCN)C(=O)N[C@@H](CCCN=C(N)N)C(=O)N[C@@H](CO)C(=O)N[C@@H](Cc1ccc(O)cc1)C(=O)N1CCC[C@H]1C(=O)N[C@@H](CCC(N)=O)C(=O)N[C@@H](Cc1ccc(O)cc1)C(=O)N[C@@H](Cc1ccc(O)cc1)C(N)=O` [FILKRSYPQYY]: the minimal inhibitory concentration (MIC) in test [3] was over 474 µM; in test [4], 406 µM (≈ 600 µg/mL).
On to `CC[C@H](C)[C@H](NC(=O)[C@H](CCCN=C(N)N)NC(=O)[C@H](CCC(N)=O)NC(=O)[C@H](Cc1cnc[nH]1)NC(=O)[C@@H](NC(=O)[C@H](CCCN=C(N)N)NC(=O)[C@H](CCCCN)NC(=O)[C@@H](N)Cc1ccccc1)[C@@H](C)CC)C(=O)N[C@@H](CCCCN)C(=O)N[C@@H](CC(=O)O)C(=O)N[C@@H](Cc1ccccc1)C(=O)N[C@@H](CC(C)C)C(=O)N[C@@H](CCCN=C(N)N)C(=O)O` [FKRIHQRIKDFLR], for which the MIC in test [3] was over 40 µM; in test [4], 5 µM (≈ 8.79 µg/mL).
In the same order, the values of `CC[C@H](C)[C@H](NC(=O)[C@H](CCCN=C(N)N)NC(=O)[C@H](CCC(N)=O)NC(=O)[C@@H](NC(=O)[C@H](CCC(N)=O)NC(=O)[C@H](CCCN=C(N)N)NC(=O)[C@H](CCCCN)NC(=O)[C@@H](N)Cc1ccccc1)C(C)C)C(=O)N[C@@H](CCCCN)C(=O)N[C@@H](CC(=O)O)C(=O)N[C@@H](Cc1ccccc1)C(=O)N[C@@H](CC(C)C)C(=O)N[C@@H](CCCN=C(N)N)C(=O)O` [FKRQVQRIKDFLR] are over 40 µM and 10 µM (≈ 17.3 µg/mL).
As for `NCC(=O)N[C@@H](CCCN=C(N)N)C(=O)N[C@@H](CCCN=C(N)N)C(=O)N1CCC[C@H]1C(=O)N[C@@H](CCCN=C(N)N)C(=O)N1CCC[C@H]1C(=O)N[C@@H](CCCN=C(N)N)C(=O)N1CCC[C@H]1C(=O)N[C@@H](CCCN=C(N)N)C(=O)N1CCC[C@H]1C(=O)N[C@@H](Cc1ccccc1)C(=O)N[C@@H](Cc1ccccc1)C(=O)N[C@@H](Cc1ccccc1)C(=O)N[C@@H](Cc1ccccc1)C(=O)N[C@@H](Cc1ccccc1)C(=O)O` [GRRPRPRPRPFFFFF], the minimal inhibitory concentration (MIC) in test [3] was 2.5 µM (≈ 4.95 µg/mL); in test [5] it was 20 µM (≈ 39.6 µg/mL); in test [4], 20 µM (≈ 39.6 µg/mL).
Regarding `CC[C@H](C)[C@H](NC(=O)[C@@H](NC(=O)[C@H](CCCCN)NC(=O)[C@@H](NC(=O)[C@H](C)NC(=O)[C@@H](NC(=O)[C@H](Cc1cnc[nH]1)NC(=O)CNC(=O)[C@H](C)NC(=O)[C@H](CC(C)C)NC(=O)[C@H](CC(=O)O)NC(=O)[C@H](CCCCN)NC(=O)[C@H](C)NC(=O)[C@H](C)NC(=O)CNC(=O)[C@H](CCCCN)NC(=O)[C@H](CC(C)C)NC(=O)[C@@H](NC(=O)[C@H](CC(=O)O)NC(=O)[C@H](CC(C)C)NC(=O)[C@@H](NC(=O)CN)C(C)C)[C@@H](C)CC)C(C)C)[C@@H](C)O)C(C)C)C(=O)O` [GVLDILKGAAKDLAGHVATKVI], the values for the minimal inhibitory concentration (MIC) in test [3] and in test [4] were 14.6 µM (≈ 32 µg/mL) and 3.6 µM (≈ 7.88 µg/mL), respectively.
`CC(C)C[C@H](NC(=O)[C@H](Cc1c[nH]c2ccccc12)NC(=O)[C@H](CCCCN)NC(=O)[C@H](CCCCN)NC(=O)[C@H](C)NC(=O)[C@H](CO)NC(=O)[C@H](Cc1cnc[nH]1)NC(=O)[C@H](CC(C)C)NC(=O)[C@H](Cc1ccccc1)NC(=O)[C@H](CCCCN)NC(=O)[C@@H](N)CCCCN)C(=O)N[C@@H](CCCCN)C(=O)N[C@@H](C)C(=O)N[C@@H](Cc1ccccc1)C(=O)N[C@H](C(=O)N[C@@H](CCCCN)C(=O)N[C@@H](CC(C)C)C(=O)N[C@@H](Cc1ccccc1)C(=O)N[C@@H](CCCCN)C(=O)N[C@@H](CC(N)=O)C(=O)N[C@@H](Cc1c[nH]c2ccccc12)C(=O)O)C(C)C` [KKFLHSAKKWLKAFVKLFKNW]: in test [3], the MIC was found to be 9.44 µM (≈ 25 µg/mL).
As for `CC(=O)N[C@@H](CCCCN)C(=O)N[C@@H](CC(C)C)C(=O)N[C@@H](CC(C)C)C(=O)N[C@@H](CCCCN)C(=O)N[C@@H](CC(C)C)C(=O)N[C@@H](CC(C)C)C(=O)N[C@@H](CCCCN)C(=O)N[C@@H](CCCCN)C(=O)N[C@@H](CC(C)C)C(=O)N[C@@H](CC(C)C)C(=O)N[C@@H](CCCCN)C(=O)N[C@@H](CC(C)C)C(=O)N[C@@H](CC(C)C)C(=O)N[C@@H](CCCCN)C(N)=O` [KLLKLLKKLLKLLK], the minimal inhibitory concentration (MIC) in test [3] amounted to 14.1 µM (≈ 24.5 µg/mL); in test [4], 20 µM (≈ 34.7 µg/mL).
Regarding `CC[C@H](C)[C@H](NC(=O)[C@H](Cc1c[nH]c2ccccc12)NC(=O)[C@H](CCCCN)NC(=O)[C@@H](NC(=O)[C@H](CC(C)C)NC(=O)[C@@H](N)CCCCN)C(C)C)C(=O)N[C@H](C(=O)N[C@@H](CCCCN)C(=O)N[C@H](C(=O)N[C@H](C(=O)N[C@@H](CC(N)=O)C(=O)N[C@@H](CCCCN)C(=O)N[C@@H](Cc1ccccc1)C(=O)N[C@H](C(=O)N[C@@H](CCCCN)C(=O)N[C@@H](CCCCN)C(=O)O)[C@@H](C)O)C(C)C)[C@@H](C)O)[C@@H](C)CC` [KLVKWIIKTVNKFTKK], the minimal inhibitory concentration (MIC) in test [1] was determined as 3.5 µM (≈ 6.91 µg/mL); in test [2] it was 22 µM (≈ 43.4 µg/mL).
Consider `CC(C)C[C@H](NC(=O)[C@H](CCCCN)NC(=O)[C@H](CC(C)C)NC(=O)[C@H](CC(C)C)NC(=O)[C@H](CCCCN)NC(=O)[C@H](CCCCN)NC(=O)[C@H](CCCCN)NC(=O)[C@H](CC(C)C)NC(=O)[C@H](CCCCN)NC(=O)[C@H](CC(C)C)NC(=O)[C@H](CC(C)C)NC(=O)[C@H](CCCCN)NC(=O)[C@H](CCCCN)NC(=O)[C@@H](N)CC(C)C)C(=O)N[C@@H](C)C(=O)NCC(=O)O` [LKKLLKLKKKLLKLAG], for which the values for the minimum inhibitory concentration (MIC) in test [3] and in test [4] were over 40 µM and 5 µM (≈ 9.18 µg/mL), respectively.
In the same order, the values of `CC(C)C[C@H](NC(=O)[C@H](CCCCN)NC(=O)[C@H](CC(C)C)NC(=O)[C@H](CC(C)C)NC(=O)[C@H](CCCCN)NC(=O)[C@H](CCCCN)NC(=O)[C@H](CC(N)=O)NC(=O)[C@H](CC(C)C)NC(=O)[C@H](CCCCN)NC(=O)[C@H](CC(C)C)NC(=O)[C@H](CC(C)C)NC(=O)[C@H](CCCCN)NC(=O)[C@H](CCCCN)NC(=O)[C@@H](N)CC(C)C)C(=O)N[C@@H](C)C(=O)NCC(=O)O` [LKKLLKLNKKLLKLAG] are over 40 µM and 2.5 µM (≈ 4.55 µg/mL).
In the same order, the values of `CC(C)[C@H](NC(=O)[C@H](Cc1c[nH]c2ccccc12)NC(=O)[C@H](CCCCN)NC(=O)[C@@H](N)CCCN=C(N)N)C(=O)N[C@@H](C)C(=O)N[C@@H](Cc1c[nH]c2ccccc12)C(=O)N[C@@H](CCCN=C(N)N)C(=O)N[C@@H](CC(N)=O)C(=O)N[C@@H](CCCN=C(N)N)C(=O)O` [RKWVAWRNR] are 49.2 µM (≈ 62.5 µg/mL) and 98.3 µM (≈ 125 µg/mL).
As for `NC(=O)[C@H](Cc1ccccc1)NC(=O)[C@H](Cc1ccccc1)NC(=O)[C@H](Cc1ccccc1)NC(=O)[C@H](Cc1ccccc1)NC(=O)[C@H](Cc1ccccc1)NC(=O)[C@@H]1CCCN1C(=O)[C@H](CCCN=C(N)N)NC(=O)[C@@H]1CCCN1C(=O)[C@H](CCCN=C(N)N)NC(=O)[C@@H]1CCCN1C(=O)[C@H](CCCN=C(N)N)NC(=O)[C@@H]1CCCN1C(=O)[C@H](CCCN=C(N)N)NC(=O)[C@@H](N)CCCN=C(N)N` [RRPRPRPRPFFFFF], the minimum inhibitory concentration (MIC) is 10 µM (≈ 19.2 µg/mL) in test [3], 20 µM (≈ 38.4 µg/mL) in test [5] and 10 µM (≈ 19.2 µg/mL) in test [4].
With `NC(=O)[C@H](Cc1c[nH]c2ccccc12)NC(=O)[C@H](Cc1c[nH]c2ccccc12)NC(=O)[C@H](Cc1c[nH]c2ccccc12)NC(=O)[C@@H]1CCCN1C(=O)[C@H](CCCN=C(N)N)NC(=O)[C@@H]1CCCN1C(=O)[C@H](CCCN=C(N)N)NC(=O)[C@@H]1CCCN1C(=O)[C@H](CCCN=C(N)N)NC(=O)[C@@H]1CCCN1C(=O)[C@H](CCCN=C(N)N)NC(=O)[C@@H](N)CCCN=C(N)N` [RRPRPRPRPWWW], the MIC in test [3] was 40 µM (≈ 69.8 µg/mL); in test [5], 20 µM (≈ 34.9 µg/mL); in test [4] it was 40 µM (≈ 69.8 µg/mL).
Turning to `CC(C)C[C@H](NC(=O)[C@H](CC(N)=O)NC(=O)[C@H](Cc1c[nH]c2ccccc12)NC(=O)[C@H](CCCN=C(N)N)NC(=O)[C@H](C)NC(=O)[C@H](CCCCN)NC(=O)[C@H](CCCCN)NC(=O)CNC(=O)[C@H](CC(C)C)NC(=O)[C@H](Cc1ccc(O)cc1)NC(=O)[C@H](Cc1ccc(O)cc1)NC(=O)CNC(=O)[C@H](Cc1c[nH]c2ccccc12)NC(=O)[C@@H](N)CO)C(=O)O` [SWGYYLGKKARWNL], in test [6], the MIC was over 50 µM.
As for `CC(C)C[C@H](NC(=O)[C@H](Cc1ccccc1)NC(=O)[C@@H]1CCCN1C(=O)[C@H](Cc1ccccc1)NC(=O)[C@H](Cc1ccccc1)NC(=O)[C@H](Cc1ccccc1)NC(=O)[C@@H]1CCCN1C(=O)[C@H](Cc1ccccc1)NC(=O)[C@H](CCCN=C(N)N)NC(=O)[C@H](CCCN=C(N)N)NC(=O)[C@@H](N)C(C)C)C(=O)N[C@@H](CCCN=C(N)N)C(=O)N[C@@H](CCCN=C(N)N)C(N)=O` [VRRFPFFFPFLRR], the minimum inhibitory concentration (MIC) in test [1] and in test [2] was 3.36 µM (≈ 6 µg/mL) each time.

Values taken from DBAASP.
